Assay results reported in patent publication US20200030415A1 (priority 2018, published 2020).
Values joined by “and” are separate entries in the source; they are usually repeats but may differ in a detail not shown here. Identical values can stand only once. Like-named read-outs stand apart in the source and are kept apart here.

Legend:
Conditions in all cases: human, in vivo
chronic migraine [1] = test system: chronic migraine
chronic migraine [2] = test system: chronic migraine; remark: listed apart in the source
migraine [3] = test system: migraine
migraine [4] = test system: migraine; remark: listed apart in the source
chronic migraine [5] = test system: chronic migraine; remark: listed apart in the source

## OnabotulinumtoxinA
Chronic migraine [1]
  improvement of headache days from baseline: about 50%
  migraine days per month: 15 days per month
Chronic migraine [2]
  headache frequency: 10 days a month
Migraine [3]
  headache frequency: 10/30
  headache intensity: 6-7 out of a scale of 10
Migraine [4]
  headache intensity: 7 out of 10
Chronic migraine [5]
  headache frequency post treatment: 14 days/month

## CC12CC3CC(C)(C1)CC(N)(C3)C2 [Namenda, memantine]
Migraine [3]
  benefit of added treatment: minimal benefit

## CC1(C)O[C@@H]2[C@@H](CO[C@@]3(COS(N)(=O)=O)OC(C)(C)O[C@@H]23)O1 [topiramate]
Chronic migraine [1]; po
  headache control with oral preventive medication: without headache control
Migraine [3]
  change of headaches with oral medication: minimal change
Migraine [4]
  adverse effect of oral preventive medication: cognitive slowing
  effect of oral preventive medication on headache frequency: none of these reduced their headache frequency

## CC(C)NCC(O)COc1cccc2ccccc12 (centres unmarked) [Propranolol]
Migraine [4]
  adverse effect of oral preventive medication: limited their exercise tolerance
  effect of oral preventive medication on headache frequency: none of these reduced their headache frequency

## C[C@@H]1[C@H](c2c(F)ccc(F)c2F)C[C@H](NC(=O)c2cnc3c(c2)C[C@@]2(C3)C(=O)Nc3ncccc32)C(=O)N1CC(F)(F)F [atogepant, reference compound]
Chronic migraine [2]
  headache frequency: 9 days a month

## CN(C)CCC=C1c2ccccc2CCc2ccccc21 [Amitriptyline, amitriptyline]
Migraine [3]
  change of headaches with oral medication: minimal change
Migraine [4]
  adverse effect of oral preventive medication: weight gain
  effect of oral preventive medication on headache frequency: none of these reduced their headache frequency

B1: erenumab (antibody, chains of the INN, looked up, V domains shown)
VH: QVQLVESGGGVVQPGRSLRLSCAASGFTFSSFGMHWVRQAPGKGLEWVAVISFDGSIKYSVDSVKGRFTISRDNSKNTLFLQMNSLRAEDTAVYYCARDRLNYYDSSGYYHYKYYGMAVWGQGTTVTVSS
VL: QSVLTQPPSVSAAPGQKVTISCSGSSSNIGNNYVSWYQQLPGTAPKLLIYDNNKRPSGIPDRFSGSKSGTSTTLGITGLQTGDEADYYCGTWDSRLSAVVFGGGTKLTVL
Chronic migraine [5]
  headache frequency: 10 days/month and 15 days/month

B2: Ajovy (antibody, chains of the INN, looked up, V domains shown)
VH: EVQLVESGGGLVQPGGSLRLSCAASGFTFSNYWISWVRQAPGKGLEWVAEIRSESDASATHYAEAVKGRFTISRDNAKNSLYLQMNSLRAEDTAVYYCLAYFDYGLAIQNYWGQGTLVTVSS
VL: EIVLTQSPATLSLSPGERATLSCKASKRVTTYVSWYQQKPGQAPRLLIYGASNRYLGIPARFSGSGSGTDFTLTISSLEPEDFAVYYCSQSYNYPYTFGQGTKLEIK
Migraine [4]; sc
  headache intensity: lower intensity
